Experimental data taken from patent US6376679B2, “Photoprotective/cosmetic compositions comprising novel benz-x-azole-substituted silane/siloxane sunscreens” (Societe L'Oreal S.A., priority 1997, dated 2002).
“And” between values parts separate entries of the source, which are not always exact repeats. Equal entries are not always repeated.

Experiment: UV absorption (ethanol)
Format: physicochemical
Settings: UV spectrum in ethanol; for εmax: at the λmax of the same cell

Compound	λmax	εmax
C=C(C)Cc1cc(OC)cc(-c2nc3ccccc3[nH]2)c1O [2-(1H-benzimidazol-2-yl)-4-methoxy-6-(2-methyl-allyl)-phenol]	302 nm and 343 nm	18,500 and 16,200
C=C(C)Cc1cc(C)cc(-c2nc3ccccc3o2)c1O [2-benzoxazol-2-yl-4-methyl-6-(2-methyl-allyl)-phenol]	299 nm and 333 nm	20,130 and 14,180
C[Si](C)(C)CCCOc1ccc(-c2nc3ccccc3[nH]2)c(O)c1 [Example 3]	333 nm and 318 nm	22,200 and 24,250
